Results taken from PubChem BioAssay (NCI).
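These data come from cells grown in 96-well plates and exposed to compound for 48 hours at five concentrations. TGI: concentration producing complete growth inhibition.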

Assays:
Assay in all cases: NCI anticancer screen, dose series, 48 h
EKVX NSCLC = system: EKVX NSCLC
DU-145 prostate = system: DU-145 prostate
SK-MEL-28 melanoma = system: SK-MEL-28 melanoma
M14 melanoma = system: M14 melanoma
SNB-75 CNS = system: SNB-75 CNS
SR leukemia = system: SR leukemia
MCF7 breast = system: MCF7 breast
NCI-H522 lung = system: NCI-H522 lung
NCI-H460 lung = system: NCI-H460 lung
SK-MEL-5 melanoma = system: SK-MEL-5 melanoma
CCRF-CEM leukemia = system: CCRF-CEM leukemia
OVCAR-5 ovarian = system: OVCAR-5 ovarian
TK-10 renal = system: TK-10 renal
IGROV1 ovarian = system: IGROV1 ovarian
KM12 colon = system: KM12 colon
OVCAR-3 ovarian = system: OVCAR-3 ovarian
MALME-3M melanoma = system: MALME-3M melanoma
A549 NSCLC = system: A549 NSCLC
CAKI-1 renal = system: CAKI-1 renal
SNB-19 CNS = system: SNB-19 CNS
U251 CNS = system: U251 CNS
A498 renal = system: A498 renal
NCI/ADR-RES ovarian = system: NCI/ADR-RES ovarian
LOX IMVI melanoma = system: LOX IMVI melanoma
RPMI-8226 leukemia = system: RPMI-8226 leukemia
786-0 renal = system: 786-0 renal
MDA-MB-231 breast = system: MDA-MB-231 breast
SF-268 CNS = system: SF-268 CNS
HS 578T breast = system: HS 578T breast
ACHN renal = system: ACHN renal
COLO 205 colon = system: COLO 205 colon
HCT-15 colon = system: HCT-15 colon
SF-539 CNS = system: SF-539 CNS
SW-620 colon = system: SW-620 colon
OVCAR-8 ovarian = system: OVCAR-8 ovarian
HT29 colon = system: HT29 colon
HL-60(TB) leukemia = system: HL-60(TB) leukemia
NCI-H226 lung = system: NCI-H226 lung
UACC-62 melanoma = system: UACC-62 melanoma
SK-OV-3 ovarian = system: SK-OV-3 ovarian
SN12C renal = system: SN12C renal
MDA-N = system: MDA-N
HOP-62 NSCLC = system: HOP-62 NSCLC
K-562 leukemia = system: K-562 leukemia
HCT-116 colon = system: HCT-116 colon
HOP-92 NSCLC = system: HOP-92 NSCLC
NCI-H23 lung = system: NCI-H23 lung
SK-MEL-2 melanoma = system: SK-MEL-2 melanoma
OVCAR-4 ovarian = system: OVCAR-4 ovarian
RXF 393 renal = system: RXF 393 renal
SF-295 CNS = system: SF-295 CNS
UACC-257 melanoma = system: UACC-257 melanoma
HCC-2998 colon = system: HCC-2998 colon
T-47D breast = system: T-47D breast
PC-3 prostate = system: PC-3 prostate
MDA-MB-435 = system: MDA-MB-435
MOLT-4 leukemia = system: MOLT-4 leukemia
UO-31 renal = system: UO-31 renal

`CC1(c2ccccc2)N=C(C(N)=O)c2[nH]cnc2N1` (stereo not drawn) was tested, and the TGI (EKVX NSCLC) was > 100 µM, the TGI (DU-145 prostate) was > 100 µM and the TGI (SK-MEL-28 melanoma) was > 100 µM. The TGI (M14 melanoma) was > 100 µM, the TGI (SNB-75 CNS) was > 100 µM and the TGI (SR leukemia) was > 100 µM. For the same compound, the TGI (MCF7 breast) was > 100 µM, the TGI (NCI-H522 lung) was > 100 µM and the TGI (NCI-H460 lung) was > 100 µM. For the same compound, the TGI (SK-MEL-5 melanoma) was > 100 µM, the TGI (CCRF-CEM leukemia) was > 100 µM and the TGI (OVCAR-5 ovarian) was > 100 µM. The TGI (TK-10 renal) was > 100 µM, the TGI (IGROV1 ovarian) was > 100 µM and the TGI (KM12 colon) was > 100 µM. The TGI (OVCAR-3 ovarian) was > 100 µM, the TGI (MALME-3M melanoma) was > 100 µM and the TGI (A549 NSCLC) was > 100 µM. The TGI (CAKI-1 renal) was > 100 µM, the TGI (SNB-19 CNS) was > 100 µM and the TGI (U251 CNS) was > 100 µM. The TGI (A498 renal) was > 100 µM, the TGI (NCI/ADR-RES ovarian) was > 100 µM and the TGI (LOX IMVI melanoma) was > 100 µM. For the same compound, the TGI (RPMI-8226 leukemia) was > 100 µM, the TGI (786-0 renal) was > 100 µM and the TGI (MDA-MB-231 breast) was > 100 µM. The TGI (SF-268 CNS) was > 100 µM, the TGI (HS 578T breast) was > 100 µM and the TGI (ACHN renal) was > 100 µM. The TGI (COLO 205 colon) was > 100 µM, the TGI (HCT-15 colon) was > 100 µM and the TGI (SF-539 CNS) was > 100 µM. For the same compound, the TGI (SW-620 colon) was > 100 µM, the TGI (OVCAR-8 ovarian) was > 100 µM and the TGI (HT29 colon) was > 100 µM. The TGI (HL-60(TB) leukemia) was > 100 µM, the TGI (NCI-H226 lung) was > 100 µM and the TGI (UACC-62 melanoma) was > 100 µM. The TGI (SK-OV-3 ovarian) was > 100 µM, the TGI (SN12C renal) was > 100 µM and the TGI (MDA-N) was > 100 µM. The TGI (HOP-62 NSCLC) was > 100 µM, the TGI (K-562 leukemia) was > 100 µM and the TGI (HCT-116 colon) was > 100 µM. For the same compound, the TGI (HOP-92 NSCLC) was > 100 µM, the TGI (NCI-H23 lung) was > 100 µM and the TGI (SK-MEL-2 melanoma) was > 100 µM. The TGI (OVCAR-4 ovarian) was > 100 µM, the TGI (RXF 393 renal) was > 100 µM and the TGI (SF-295 CNS) was > 100 µM. The TGI (UACC-257 melanoma) was > 100 µM, the TGI (HCC-2998 colon) was > 100 µM and the TGI (T-47D breast) was > 100 µM. For the same compound, the TGI (PC-3 prostate) was > 100 µM and the TGI (MDA-MB-435) was > 100 µM.

Compound `CCCCCCCCCc1c(Cl)nc(Cl)nc1Cl` has a TGI (EKVX NSCLC) of 38.2 µM, a TGI (DU-145 prostate) of 31.2 µM and a TGI (SK-MEL-28 melanoma) of 35.7 µM. It also gave a TGI (M14 melanoma) of 11 µM, a TGI (SNB-75 CNS) of 29.6 µM and a TGI (SR leukemia) of 7.93 µM. It also gave a TGI (MCF7 breast) of 36.5 µM, a TGI (NCI-H522 lung) of 12.1 µM and a TGI (NCI-H460 lung) of 37.4 µM. For the same compound, the TGI (SK-MEL-5 melanoma) was 25.6 µM, the TGI (CCRF-CEM leukemia) was 5.79 µM and the TGI (OVCAR-5 ovarian) was 35.9 µM. For the same compound, the TGI (TK-10 renal) was 37.8 µM, the TGI (IGROV1 ovarian) was 26.6 µM and the TGI (KM12 colon) was > 65 µM. For the same compound, the TGI (OVCAR-3 ovarian) was 32 µM, the TGI (MALME-3M melanoma) was 25.6 µM and the TGI (A549 NSCLC) was 37.6 µM. For the same compound, the TGI (CAKI-1 renal) was 12.1 µM, the TGI (SNB-19 CNS) was 30.8 µM and the TGI (U251 CNS) was 33 µM. The TGI (A498 renal) was 34 µM, the TGI (NCI/ADR-RES ovarian) was 35.8 µM and the TGI (LOX IMVI melanoma) was 4.34 µM. It also gave a TGI (RPMI-8226 leukemia) of 37.5 µM, a TGI (786-0 renal) of 27.8 µM and a TGI (MDA-MB-231 breast) of 25 µM. The TGI (SF-268 CNS) was 34.6 µM, the TGI (HS 578T breast) was 58.3 µM and the TGI (ACHN renal) was 33.7 µM. It also gave a TGI (COLO 205 colon) of 37.7 µM, a TGI (HCT-15 colon) of 27.5 µM and a TGI (SF-539 CNS) of 32.6 µM. It also gave a TGI (SW-620 colon) of 26.3 µM, a TGI (OVCAR-8 ovarian) of 32.1 µM and a TGI (HT29 colon) of 34 µM. For the same compound, the TGI (MOLT-4 leukemia) was 5.18 µM, the TGI (HL-60(TB) leukemia) was 18.2 µM and the TGI (NCI-H226 lung) was 20.1 µM. For the same compound, the TGI (UACC-62 melanoma) was 38.8 µM, the TGI (SK-OV-3 ovarian) was 36.4 µM and the TGI (SN12C renal) was 26.8 µM. The TGI (MDA-N) was 32.2 µM, the TGI (HOP-62 NSCLC) was 37.5 µM and the TGI (K-562 leukemia) was 19.4 µM. It also gave a TGI (HCT-116 colon) of 27.9 µM, a TGI (HOP-92 NSCLC) of 29.4 µM and a TGI (NCI-H23 lung) of 25.7 µM. The TGI (OVCAR-4 ovarian) was 28.9 µM, the TGI (RXF 393 renal) was 32.3 µM and the TGI (UO-31 renal) was 32.2 µM. For the same compound, the TGI (SF-295 CNS) was 39.3 µM, the TGI (UACC-257 melanoma) was 34.6 µM and the TGI (HCC-2998 colon) was 8.89 µM. It also gave a TGI (T-47D breast) of 27 µM, a TGI (PC-3 prostate) of 29.8 µM and a TGI (MDA-MB-435) of 26.7 µM.
